What follows are molecules tested against T1, mGlyT-1b (Mus musculus, UniProt P28571) (assay: Glycine Uptake Inhibition Assay (mGlyT-1b)). Settings: inhibition of [3H]-glycine uptake in Flp-in-CHO cells transfected with mGlyT-1b cDNA; 20 min preincubation at 22° C.; read-out: IC50 (μM) at GlyT-1.
T1 construct: host or cells: Flp-in-CHO cells (vendor and catalogue number are those of the host cell line)
T1 sequence (P28571 1-651 isoform P28571-2): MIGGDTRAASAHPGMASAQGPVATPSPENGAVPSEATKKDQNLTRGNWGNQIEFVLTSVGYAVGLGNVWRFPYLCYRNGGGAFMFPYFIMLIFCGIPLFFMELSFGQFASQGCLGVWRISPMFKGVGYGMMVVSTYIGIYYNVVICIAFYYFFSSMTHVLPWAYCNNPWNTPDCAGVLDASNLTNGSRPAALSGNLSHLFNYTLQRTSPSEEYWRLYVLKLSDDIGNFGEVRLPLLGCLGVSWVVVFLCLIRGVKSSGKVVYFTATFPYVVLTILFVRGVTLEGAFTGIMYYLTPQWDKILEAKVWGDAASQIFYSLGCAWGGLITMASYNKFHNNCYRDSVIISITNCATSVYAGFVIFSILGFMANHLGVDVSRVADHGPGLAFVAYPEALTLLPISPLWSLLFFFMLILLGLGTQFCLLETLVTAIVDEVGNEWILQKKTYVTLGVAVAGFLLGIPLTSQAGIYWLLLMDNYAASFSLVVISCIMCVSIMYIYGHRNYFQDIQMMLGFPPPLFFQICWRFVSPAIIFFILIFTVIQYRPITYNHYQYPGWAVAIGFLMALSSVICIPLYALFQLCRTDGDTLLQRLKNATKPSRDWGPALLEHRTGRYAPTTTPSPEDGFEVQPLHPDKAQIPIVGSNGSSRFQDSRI
Assay type: cell-based
Procedure: DMEM complete medium: Nutrient mixture F-12 (Gibco Life-technologies), fetal bovine serum (FBS) 5%, (Gibco life technologies), Penicillin/Streptomycin 1% (Gibco life technologies), Hygromycin 0.6 mg/ml (Gibco life technologies), Glutamine 1 mM Gibco life technologies)
Uptake buffer (UB): 150 mM NaCl, 10 mM Hepes-Tris, pH 7.4, 1 mM CaCl2, 2.5 mM KCl, 2.5 mM MgSO4, 10 mM (+) D-glucose.
Flp-in™-CHO (Invitrogen Cat n° R758-07) cells stably transfected with mGlyT1b cDNA.
Glycine Uptake Inhibition Assay (mGlyT-1b)
On day 1 mammalian cells, (Flp-in™-CHO), transfected with mGlyT-1b cDNA, were plated at the density of 40,000 cells/well in complete F-12 medium, without hygromycin in 96-well culture plates. On day 2, the medium was aspirated and the cells were washed twice with uptake buffer (UB). The cells were then incubated for 20 min at 22° C. with either (i) no potential competitor, (ii) 10 mM non-radioactive glycine, (iii) a concentration of a potential inhibitor. A range of concentrations of the potential inhibitor was used to generate data for calculating the concentration of inhibitor resulting in 50% of the effect (e.g. IC50, the concentration of the competitor inhibiting glycine uptake of 50%). A solution was then immediately added containing [^3H]-glycine 60 nM (11–16 Ci/mmol) and 25 μM non-radioactive glycine. The plates were incubated with gentle shaking and the reaction was stopped by aspiration of the mixture and washing (three times) with ice-cold UB. The cells were lysed with scintillation liquid, shaken 3 hours and the radioactivity in the cells was counted using a scintillation counter.
With `CCCCS(=O)(=O)c1cnc(N2CCN(C(=O)c3cc(S(C)(=O)=O)ccc3OC(C)C(F)(F)F)CC2)s1` (centres unmarked) [Example 39, {4-[5-(Butane-1-sulfonyl)-thiazol-2-yl]-piperazin-1-yl}-[5-methanesulfonyl-2-(2,2,2-trifluoro-1-methyl-ethoxy)-phenyl]-methanone] the IC50 was 0.07 µM. With `CCCCS(=O)(=O)c1cnc(N2CCN(C(=O)c3cc(S(C)(=O)=O)ccc3OC3CCCC3)CC2)s1` [Example 41, {4-[5-(Butane-1-sulfonyl)-thiazol-2-yl]-piperazin-1-yl}-(2-cyclopentyloxy-5-methanesulfonyl-phenyl)-methanone] the IC50 was 0.018 µM. Molecule `C[C@H](Oc1ccc(S(C)(=O)=O)cc1C(=O)N1CCN(c2nnc(C(F)(F)F)s2)CC1)C(F)(F)F` [Example 93, [5-Methanesulfonyl-2-((S)-2,2,2-trifluoro-1-methyl-ethoxy)-phenyl]-[4-(5-trifluoromethyl-[1,3,4]thiadiazol-2-yl)-piperazin-1-yl]-methanone] has an IC50 of 0.075 µM. Molecule `C[C@H](Oc1ccc(S(C)(=O)=O)cc1C(=O)N1CCN(c2ncc(CC(F)(F)F)s2)CC1)C(F)(F)F` [Example 70, [5-Methanesulfonyl-2-((S)-2,2,2-trifluoro-1-methyl-ethoxy)-phenyl]-{4-[5-(2,2,2-trifluoro-ethyl)-thiazol-2-yl]-piperazin-1-yl}-methanone] has an IC50 of 0.057 µM. Molecule `CNS(=O)(=O)c1ccc(OC2CCCC2)c(C(=O)N2CCN(c3ncc(C#N)s3)CC2)c1` [Example 99, 3-[4-(5-Cyano-thiazol-2-yl)-piperazine-1-carbonyl]-4-cyclopentyloxy-N-methyl-benzenesulfonamide] has an IC50 of 0.021 µM. Work on `C[C@H](Oc1ccc(S(C)(=O)=O)cc1C(=O)N1CCN(c2ncc(C(F)(F)F)s2)CC1)C(F)(F)F` [Example 67, [5-Methanesulfonyl-2-((S)-2,2,2-trifluoro-1-methyl-ethoxy)-phenyl]-[4-(5-trifluoromethyl-thiazol-2-yl)-piperazin-1-yl]-methanone] yielded an IC50 of 0.046 µM. `C[C@@H](Oc1ccc(S(C)(=O)=O)cc1C(=O)N1CCN(c2ncc(CC(F)(F)F)s2)CC1)C(F)(F)F` [Example 71, [5-Methanesulfonyl-2-((R)-2,2,2-trifluoro-1-methyl-ethoxy)-phenyl]-{4-[5-(2,2,2-trifluoro-ethyl)-thiazol-2-yl]-piperazin-1-yl}-methanone] showed an IC50 of 0.069 µM. `Cc1sc(N2CCN(C(=O)c3cc(S(C)(=O)=O)ccc3OC(C)C(F)(F)F)CC2)nc1C(F)(F)F` (centres unmarked) [Example 55, [5-Methanesulfonyl-2-(2,2,2-trifluoro-1-methyl-ethoxy)-phenyl]-[4-(5-methyl-4-trifluoromethyl-thiazol-2-yl)-piperazin-1-yl]-methanone] was tested, and the IC50 was 0.073 µM.

Reference: patent US7220744B2, “Monocyclic substituted phenyl methanones” (Hoffman-La Roche Inc., priority 2005, dated 2007)
